Laboratory results taken from ChEMBL document CHEMBL4483862, “Open-source discovery of chemical leads for next-generation chemoprotective antimalarials” (2018).

Test system: Plasmodium berghei
Assay: Luciferase/luciferin-expressing antifolate-resistant parasites were used to infect a culture of HepG2 cells that were pre-incubated with compounds. Infected hepatocytes emit light due to the luciferase reaction. Assay results are presented as the percent inhibition of light emission compared to control. […]
Type: functional
Details: sporozoite; for IC90: read-out: LUCIFERASE INFECTION ASSAY - IC90

SMILES | IC90 | also measured
Cc1noc(C)c1COc1cccc(C(=O)OCC(=O)N2CC(=O)Nc3ccccc32)c1 | > 10000 nM | IC50 (HEPG2TOX_HILL_SLOPE 1.25, HEPG2TOX_R_SQUARED 0.939, PBLUC_HILL_SLOPE 2.73, PBLUC_R_SQUARED 0.35, read-out: LUCIFERASE INFECTION ASSAY - IC50): 6680 nM
CCCc1c(O)nc2ccc(C)cc2c1C | > 15300 nM | IC50 (HEPG2TOX_HILL_SLOPE 1.25, HEPG2TOX_R_SQUARED 0.942, PBLUC_HILL_SLOPE 1.62, PBLUC_R_SQUARED 0.0626, read-out: LUCIFERASE INFECTION ASSAY - IC50): 11300 nM
CCCNc1nc(-c2ccccc2)c(C(=O)OCC)cc1C#N | 3120 nM | IC50 (HEPG2TOX_HILL_SLOPE 1.25, HEPG2TOX_R_SQUARED 0.958, PBLUC_HILL_SLOPE 3.81, PBLUC_R_SQUARED 0.673, read-out: LUCIFERASE INFECTION ASSAY - IC50): 1750 nM
CN(C)c1ccc(/C=C/c2ccc3ccccc3[n+]2C)cc1 | 2350 nM | IC50 (HEPG2TOX_HILL_SLOPE 1.22, HEPG2TOX_R_SQUARED 0.944, PBLUC_HILL_SLOPE 2.39, PBLUC_R_SQUARED 0.798, read-out: LUCIFERASE INFECTION ASSAY - IC50): 935 nM
CC(C)c1ccc(-n2c(-c3ccccc3)c[n+]3c2CCc2ccccc2-3)cc1 | 1230 nM | IC50 (HEPG2TOX_HILL_SLOPE 1.23, HEPG2TOX_R_SQUARED 0.988, PBLUC_HILL_SLOPE 3.39, PBLUC_R_SQUARED 0.644, read-out: LUCIFERASE INFECTION ASSAY - IC50): 642 nM
COc1cc(-c2cnc3cnc(-c4ccc(NCCN5CCOCC5)nc4)cn23)ccc1O | > 7390 nM | IC50 (HEPG2TOX_HILL_SLOPE 1.25, HEPG2TOX_R_SQUARED 0.41, PBLUC_HILL_SLOPE 2.45, PBLUC_R_SQUARED 0.19, read-out: LUCIFERASE INFECTION ASSAY - IC50): 6150 nM
Cn1ccc2cc(-c3cnc4cnc(-c5cccc(C(N)=O)c5)cn34)ccc21 | > 8980 nM | IC50 (HEPG2TOX_HILL_SLOPE 1.25, HEPG2TOX_R_SQUARED 0.898, PBLUC_HILL_SLOPE 0.953, PBLUC_R_SQUARED 0.66, read-out: LUCIFERASE INFECTION ASSAY - IC50): 1230 nM
CC(Nc1ncnc2ccsc12)c1nc2ccccc2n1C(F)F (configuration not stated) | 7920 nM | IC50 (HEPG2TOX_HILL_SLOPE 1.22, HEPG2TOX_R_SQUARED 0.959, PBLUC_HILL_SLOPE 2.24, PBLUC_R_SQUARED 0.732, read-out: LUCIFERASE INFECTION ASSAY - IC50): 2970 nM
CS(=O)(=O)Nc1nc(-c2ccccn2)nc2scc(-c3ccccc3)c12 | 3290 nM | IC50 (HEPG2TOX_HILL_SLOPE 1.24, HEPG2TOX_R_SQUARED 0.884, PBLUC_HILL_SLOPE 3.45, PBLUC_R_SQUARED 0.254, read-out: LUCIFERASE INFECTION ASSAY - IC50): 1740 nM
O=C(NCCO)c1cccc(-c2ccc3ncc(-c4cccc(Cl)c4)n3n2)c1 | 3560 nM | IC50 (HEPG2TOX_HILL_SLOPE 1.24, HEPG2TOX_R_SQUARED 0.781, PBLUC_HILL_SLOPE 15.2, PBLUC_R_SQUARED 0.219, read-out: LUCIFERASE INFECTION ASSAY - IC50): 3080 nM
CCOC(=O)c1c(C)[nH]c(C(=O)C(C)OC(=O)c2n[nH]c(=O)c3ccccc23)c1C (configuration not stated) | > 10000 nM | IC50 (HEPG2TOX_HILL_SLOPE 1.25, HEPG2TOX_R_SQUARED 0.561, read-out: LUCIFERASE INFECTION ASSAY - IC50): > 10000 nM
O=C(c1cnc2cc3c(cc2c1)OCCO3)c1cc(F)ccc1O | 2410 nM | IC50 (HEPG2TOX_HILL_SLOPE 1.24, HEPG2TOX_R_SQUARED 0.963, PBLUC_HILL_SLOPE 1.6, PBLUC_R_SQUARED 0.807, read-out: LUCIFERASE INFECTION ASSAY - IC50): 612 nM
O=C(NCCC1=CCCCC1)c1cc2ccccc2c(=O)[nH]1 | > 10000 nM | IC50 (HEPG2TOX_HILL_SLOPE 1.23, HEPG2TOX_R_SQUARED 0.699, PBLUC_HILL_SLOPE 12.6, PBLUC_R_SQUARED 0.339, read-out: LUCIFERASE INFECTION ASSAY - IC50): 9570 nM
COc1ccc(S(=O)(=O)N(Cc2cccs2)c2ccc3c(c2)OCCO3)cc1NC(C)=O | > 10000 nM | IC50 (HEPG2TOX_HILL_SLOPE 1.25, HEPG2TOX_R_SQUARED 0.989, PBLUC_HILL_SLOPE 1.59, PBLUC_R_SQUARED 0.297, read-out: LUCIFERASE INFECTION ASSAY - IC50): 4150 nM
OCc1cccc(-c2ccc3ncc(-c4cccc(Cl)c4)n3n2)c1 | 2730 nM | IC50 (HEPG2TOX_HILL_SLOPE 1.23, HEPG2TOX_R_SQUARED 0.98, PBLUC_HILL_SLOPE 1.42, PBLUC_R_SQUARED 0.52, read-out: LUCIFERASE INFECTION ASSAY - IC50): 582 nM
Cn1ccc2cc(-c3cnc4cnc(-c5ccc6c(c5)OCO6)cn34)ccc21 | 41.3 nM | IC50 (HEPG2TOX_HILL_SLOPE 1.26, HEPG2TOX_R_SQUARED 0.912, PBLUC_HILL_SLOPE 10.9, PBLUC_R_SQUARED 0.837, read-out: LUCIFERASE INFECTION ASSAY - IC50): 33.8 nM

SMILES | IC90 | also measured
Cc1cccc(C2CC(=O)c3cnn(-c4nc(C)cc(C)n4)c3C2)c1 (configuration not stated) | 1390 nM | IC50 (HEPG2TOX_HILL_SLOPE 1.23, HEPG2TOX_R_SQUARED 0.907, PBLUC_HILL_SLOPE 2.7, PBLUC_R_SQUARED 0.565, read-out: LUCIFERASE INFECTION ASSAY - IC50): 617 nM
O=C(NNC(=O)c1ccccc1OCc1cn2ccccc2n1)c1ccc2ccccc2n1 | 1740 nM | IC50 (HEPG2TOX_HILL_SLOPE 1.26, HEPG2TOX_R_SQUARED 0.832, PBLUC_HILL_SLOPE 7.59, PBLUC_R_SQUARED 0.237, read-out: LUCIFERASE INFECTION ASSAY - IC50): 1310 nM
O=C(NCc1ccccc1OC1CCCC1)Nc1nnc(C2CC2)s1 | 7550 nM | IC50 (HEPG2TOX_HILL_SLOPE 1.24, HEPG2TOX_R_SQUARED 0.927, PBLUC_HILL_SLOPE 4.07, PBLUC_R_SQUARED 0.516, read-out: LUCIFERASE INFECTION ASSAY - IC50): 4400 nM
Cc1cc(C(=O)/C(C#N)=N/Nc2cccc(Cl)c2)n(C(C)(C)C)n1 | > 9600 nM | IC50 (HEPG2TOX_HILL_SLOPE 1.25, HEPG2TOX_R_SQUARED 0.973, PBLUC_HILL_SLOPE 1.27, PBLUC_R_SQUARED 0.674, read-out: LUCIFERASE INFECTION ASSAY - IC50): 3490 nM
O=C(N/N=C(\Cc1ncc[nH]1)c1ccccc1)c1cccs1 | 4170 nM | IC50 (HEPG2TOX_HILL_SLOPE 1.23, HEPG2TOX_R_SQUARED 0.975, PBLUC_HILL_SLOPE 4.09, PBLUC_R_SQUARED 0.691, read-out: LUCIFERASE INFECTION ASSAY - IC50): 2440 nM
CCN(CCNc1ncnc2sc3c(c12)CCC3)c1cccc(C)c1 | 1440 nM | IC50 (HEPG2TOX_HILL_SLOPE 1.22, HEPG2TOX_R_SQUARED 0.961, PBLUC_HILL_SLOPE 11.3, PBLUC_R_SQUARED 0.508, read-out: LUCIFERASE INFECTION ASSAY - IC50): 1180 nM
Cc1ccc(C)c(OC2CCN(C(=O)Nc3cc(C)on3)CC2)c1 | 1370 nM | IC50 (HEPG2TOX_HILL_SLOPE 1.23, HEPG2TOX_R_SQUARED 0.839, PBLUC_HILL_SLOPE 15.3, PBLUC_R_SQUARED 0.595, read-out: LUCIFERASE INFECTION ASSAY - IC50): 1190 nM
COC(=O)c1c(C)[nH]c(C(=O)C(C)OC(=O)Cn2c(C(F)(F)F)nc3ccccc32)c1C (configuration not stated) | > 10000 nM | IC50 (HEPG2TOX_HILL_SLOPE 1.23, HEPG2TOX_R_SQUARED 0.914, read-out: LUCIFERASE INFECTION ASSAY - IC50): > 10000 nM
O=C(NN=c1nc[nH]c2ccccc12)c1c(O)c(O)cc2ccccc12 | 1340 nM | IC50 (HEPG2TOX_HILL_SLOPE 1.23, 1.37, HEPG2TOX_R_SQUARED 0.873, 0.334, PBLUC_HILL_SLOPE 12.1, 7.99, PBLUC_R_SQUARED 0.334, 0.684, read-out: LUCIFERASE INFECTION ASSAY - IC50): 1070 nM
O=C(NCC1CCCO1)c1cc2c([nH]c3ccccc32)c(-c2ccc(F)cc2)n1 (configuration not stated) | 8340 nM | IC50 (HEPG2TOX_HILL_SLOPE 1.25, HEPG2TOX_R_SQUARED 0.9, PBLUC_HILL_SLOPE 2.06, PBLUC_R_SQUARED 0.74, read-out: LUCIFERASE INFECTION ASSAY - IC50): 2860 nM
O=C(Nc1nc2ccccn2c1C(=O)NC1CCCC1)c1ccc(Cl)cc1Cl | 2660 nM | IC50 (HEPG2TOX_HILL_SLOPE 1.22, HEPG2TOX_R_SQUARED 0.989, PBLUC_HILL_SLOPE 22.2, PBLUC_R_SQUARED 0.579, read-out: LUCIFERASE INFECTION ASSAY - IC50): 2410 nM
CCOc1cc2ncc(C#N)c(Nc3ccc(F)c(Cl)c3)c2cc1N | 6300 nM | IC50 (HEPG2TOX_HILL_SLOPE 1.25, HEPG2TOX_R_SQUARED 0.941, PBLUC_HILL_SLOPE 3.96, PBLUC_R_SQUARED 0.532, read-out: LUCIFERASE INFECTION ASSAY - IC50): 3610 nM
COc1cc(NC(=O)c2cc(N3CCN(c4ccccn4)CC3)ncn2)cc(OC)c1OC | 1610 nM | IC50 (HEPG2TOX_HILL_SLOPE 1.23, HEPG2TOX_R_SQUARED 0.824, PBLUC_HILL_SLOPE 2.21, PBLUC_R_SQUARED 0.872, read-out: LUCIFERASE INFECTION ASSAY - IC50): 596 nM
c1cc2c(cc1-c1cn3c(-c4ccc5c(c4)OCO5)cnc3cn1)OCO2 | 8220 nM | IC50 (HEPG2TOX_HILL_SLOPE 1.25, HEPG2TOX_R_SQUARED 0.883, PBLUC_HILL_SLOPE 2.72, PBLUC_R_SQUARED 0.694, read-out: LUCIFERASE INFECTION ASSAY - IC50): 3660 nM
c1ccc(-n2c(SCc3nc(-c4cccs4)no3)nnc2-c2ccc3c(c2)OCO3)cc1 | 6690 nM | IC50 (HEPG2TOX_HILL_SLOPE 1.25, HEPG2TOX_R_SQUARED 0.965, PBLUC_HILL_SLOPE 1.25, PBLUC_R_SQUARED 0.656, read-out: LUCIFERASE INFECTION ASSAY - IC50): 1150 nM
